Results: US11072632B2, “Inhibitors of 17β-HSD1, 17β-HSD3 and 17β-HSD10” (UNIVERSITÉ LAVAL, priority 2011, dated 2021)
Like-named read-outs stand apart in the source and are kept apart here.

Legend:
[1] = tested on: ovariectomized (OVX) mice; test: In vivo estrogenic activity (uterotrophic assay) in OVX mice; parameters: species or system mouse; settings: for increase in uterine weight vs. control group: 100 μg/kg s.c. BID, 7 days
Description: The mice were fed rodent chow and tap water ad libitum. The animals were ovariectomized (OVX) under isoflurane-anaesthesia via bilateral flank incisions and randomly assigned to groups (5 animals by group). Mice in the OVX control group received the vehicle alone (8% ethanol-0.4% methylcellulose) during the 7-day period. The possible estrogenic activity of tested compounds was evaluated after their administration by subcutaneous (s.c.) injection [1, 10 and 100 μg/kg, s.c., twice daily (BID)] as suspension in 8% ethanol-0.4% methylcellulose to OVX female mice for 7 days. On day 8, the mice were sacrificed by cervical dislocation. The uteri and vagina were rapidly removed, freed from fat and connective tissue and weighed. Results are the means±SEM of 5 mice per group.

[2] = tested on: androgen-sensitive (AR+) Shionogi cells; test: Proliferative (androgenic) activity on androgen-sensitive Shionogi cells; type: cell-based; settings: basal (control) 100%
Description: The proliferative (androgenic) activity was determined using androgen-sensitive Shionogi cells following a known literature procedure.^54 Inhibitors and reference compounds were tested at two concentrations (0.1 and 1.0 μM). The androgenicity was reported as % cell proliferation (versus the control). The basal cell proliferation (control) was fixed at 100%.

17β-HSD3 [3] = target: T1, 17β-HSD3 (Homo sapiens, UniProt P37058); test: Inhibition of 17β-HSD3 in homogenated HEK-293 cells; type: biochemical; settings: Table 2 (17β-HSD3)
T1 construct: expressed in transfected cells; host or cells: HEK-293 (homogenate)
T1 sequence (P37058 1-310): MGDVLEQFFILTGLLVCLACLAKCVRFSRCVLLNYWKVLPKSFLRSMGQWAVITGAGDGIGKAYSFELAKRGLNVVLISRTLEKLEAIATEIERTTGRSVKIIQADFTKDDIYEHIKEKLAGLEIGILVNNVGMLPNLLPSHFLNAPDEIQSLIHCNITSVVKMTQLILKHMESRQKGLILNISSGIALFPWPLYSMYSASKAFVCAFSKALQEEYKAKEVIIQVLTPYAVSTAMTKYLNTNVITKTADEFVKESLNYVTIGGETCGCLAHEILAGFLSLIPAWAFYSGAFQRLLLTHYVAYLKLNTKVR

17β-HSD3 [4] = target: T1, 17β-HSD3; test: Inhibition of 17β-HSD3 in intact HEK-293 cells; type: cell-based; settings: HEK293, 1 h, Table 2 (17β-HSD3)
17β-HSD1 = target: T2, 17β-HSD1 (Homo sapiens, UniProt P14061); test: Inhibition of 17β-HSD1 in T-47D intact cells (E1 into E2); type: cell-based; settings: T47D; for inhibition at 1 µM: read-out: Inhibition (1 μM); for inhibition at 0.01 µM: read-out: Inhibition % (0.01 μM)
T2 construct: endogenous in cells; host or cells: T-47D
T2 sequence (P14061 1-328): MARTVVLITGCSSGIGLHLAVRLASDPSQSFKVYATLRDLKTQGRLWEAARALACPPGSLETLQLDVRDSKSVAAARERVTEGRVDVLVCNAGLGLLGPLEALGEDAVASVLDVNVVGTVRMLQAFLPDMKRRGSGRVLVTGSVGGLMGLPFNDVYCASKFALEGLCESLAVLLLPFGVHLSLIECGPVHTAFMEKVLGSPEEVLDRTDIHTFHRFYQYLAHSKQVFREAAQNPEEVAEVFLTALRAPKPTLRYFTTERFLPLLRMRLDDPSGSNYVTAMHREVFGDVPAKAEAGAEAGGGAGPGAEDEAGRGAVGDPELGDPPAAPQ
Description: T-47D cells were seeded in a 24-well plate (3000 cells/well) in medium supplemented with insulin (50 ng/mL) and 5% dextran-coated charcoal treated FBS rather than 10% FBS to remove remaining hormones. […] Each inhibitor was assessed in triplicate. After incubation, the culture medium was removed and labelled steroids (E1 and E2) extracted with 1 mL of diethyl ether. The organic phases were separated and evaporated to dryness using nitrogen. Residues were dissolved in dichloromethane and dropped on silica gel thin layer chromatography plates (EMD Chemicals Inc., Gibbstown, N.J., USA) and eluted with a toluene/acetone (4:1) solvent system. Substrate [^14C]-E1 and metabolite [^14C]-E2 were identified by comparison with reference steroids and quantified using a Storm 860 system (Molecular Dynamics, Sunnyvale, Calif., USA).
T-47D cells were seeded in a 24-well plate (3000 cells/well) in 990 μL of medium supplemented with insulin (50 ng/mL) and 5% dextran-coated charcoal-treated FBS, which was used rather than untreated 10% FBS, to remove the remaining steroid hormones. […] The final concentration of ethanol in the well was adjusted to 0.1%. Additionally, 5 μL of a solution of [^14C]-estrone (American Radiolabeled Chemicals, Inc., St. Louis, Mo., USA) was added to obtain a final concentration of 60 nM. […] After incubation, the culture medium was removed and labeled steroids (E1 and E2) were extracted with 1 mL of diethyl ether. The organic phases were evaporated to dryness with nitrogen. Residues were dissolved in dichloromethane and dropped on silica gel thin layer chromatography plates (EMD Chemicals Inc., Gibbstown, N.J., USA) and eluted with toluene/acetone (4:1) as solvent system. Substrate [^14C]-E1 and metabolite [^14C]-E2 were identified by comparison with reference steroids (E1 and E2) and quantified using the Storm 860 system (Molecular Dynamics, Sunnyvale, Calif., USA).

MCF-7 cells = test: Estrogenic activity in MCF-7 cells; on Estrogenicity (0.1 μM): key: — = no; + = weak; ++ = medium to strong; on Estrogenicity (1.0 μM): key: — = no; + = weak; ++ = medium to strong; type: cell-based, human; settings: 7 days; for Estrogenicity (1.0 μM) / Estrogenicity (0.1 μM): growth of estrogen-starved MCF-7 cells; for estrogenic activity on MCF-7 cells (FIG. 1): concentrations up to 5 μM
Description: MCF-7 cells were seeded with medium supplemented with insulin (50 ng/mL) and 5% dextran-coated charcoal treated FBS rather than 10% FBS to remove remaining hormones. Aliquots (100 μL) of the cell suspension were seeded in 96-well plates (3000 cells/well). […] Cells were grown either in the absence or presence of the compounds over a period of 7 days. Quantification of cell growth was determined by using the CellTiter 96®Aqueous Solution Cell Proliferation Assay (Promega, Nepean, ON, Canada) following the manufacturer's instructions. To determine the proliferative (estrogenic) activity, the cells were grown in the absence (control fixed as 100%) or presence of the tested compounds at the indicated concentrations.

[5] = Table 2 (17β-HSD1), [14C]-E1 60 nM, T-47D intact cells, 0.1 μM, read-out: Inhibition (0.1 μM)
[6] = Table 2 (17β-HSD1), [14C]-E1 60 nM, T-47D intact cells, 1 μM
[7] = [14C]-E1 (60 nM) into [14C]-E2, T-47D intact cells
[8] = [14C]-E1 (60 nM) into [14C]-E2, T-47D intact cells, 0.1 μM, read-out: Inhibition % (0.1 μM)

## C[C@]12CC[C@@H]3c4ccc(O)cc4CC[C@H]3[C@@H]1CC[C@H]2O [17α-E2 (2), 17α-estradiol]
[1]
  increase in uterine weight vs. control group: 3.6 fold

## C[C@@]12CC[C@@H]3c4ccc(O)cc4CC[C@H]3[C@@H]1CC[C@H]2O [18-epi-17α-E2 (4), (13α,17α)-estra-1(10),2,4-triene-3,17-diol]
[1]
  increase in uterine weight vs. control group: 2.6 fold

## C[C@@]12CC[C@@H]3c4ccc(O)cc4CC[C@H]3[C@@H]1CC[C@@H]2O [18-epi-17β-E2 (3), (13α,17β)-estra-1(10),2,4-triene-3,17-diol]
[1]
  increase in uterine weight vs. control group: 1.5 fold
[1]; uterus and vagina, OVX mice
  uterotrophic activity: no significant uterotrophic activity

## C[C@]12CC[C@](O)(Cc3ccccc3)C[C@@H]1CC[C@@H]1[C@@H]2CC[C@]2(C)C(=O)CC[C@@H]12 [CS-213, 3β-benzyl-3α-hydroxy-5α-androstan-17-one, reference compound]
[2]; 0.1 μM
  cell proliferation, % of basal: 225%
[2]; 1 μM
  cell proliferation, % of basal: 396%

## CCN(Cc1ccccc1)C[C@@]1(O)CC[C@@]2(C)[C@@H](CC[C@@H]3[C@@H]2CC[C@]2(C)C(=O)CC[C@@H]32)C1 [Compound 7a, (3α,5α)-3{[benzyl(ethyl)amino]methyl}3-hydroxyandrostan-17-one]
17β-HSD3 [3]; 0.1 μM, read-out: Homo (%) (0.1 μM)
  inhibition at 0.1 µM: 85%
17β-HSD3 [3]; 1 μM, read-out: Homo (%) (1 μM)
  inhibition at 1 µM: 90%
17β-HSD3 [3]; [14C]-Δ4-dione 50 nM into [14C]-T, 0.01 μM, read-out: Homo (%) (0.01 μM)
  inhibition at 0.01 µM: 42%
[2]; 0.1 μM
  cell proliferation, % of basal: 292%
[2]; 1 μM
  cell proliferation, % of basal: 314%
17β-HSD3 [4]; 0.1 μM, read-out: Intact cells (%) (0.1 μM)
  inhibition at 0.1 µM: 86%
17β-HSD3 [4]; 1 μM, read-out: Intact cells (%) (1 μM)
  inhibition at 1 µM: 94%

## C[C@]12CC[C@@H]3c4ccc(CC(=O)O)cc4CC[C@H]3[C@@H]1C[C@H](Cc1cccc(C(N)=O)c1)[C@@H]2O [Compound 31, [(16β,17β)-16-(3-carbamoylbenzyl)-17-hydroxyestra-1(10),2,4-trien-3-yl]acetic acid]
17β-HSD1; [5]
  inhibition at 0.1 µM: 12%
17β-HSD1; [6]
  inhibition at 1 µM: 29%
MCF-7 cells
  Estrogenicity (1.0 μM): +

## C[C@]12CC[C@@H]3c4ccc(C(=O)O)cc4CC[C@H]3[C@@H]1C[C@H](Cc1cccc(C(N)=O)c1)[C@@H]2O [Compound 36, (16β,17β)-16-(3-carbamoylbenzyl)-17-hydroxyestra-1,3,5(10)-triene-3-carboxylic acid]
17β-HSD1; [5]
  inhibition at 0.1 µM: 5%
17β-HSD1; [6]
  inhibition at 1 µM: 8%
MCF-7 cells
  Estrogenicity (1.0 μM): ++

## C[C@]12CC[C@@H]3c4ccc(CN)cc4CC[C@H]3[C@@H]1C[C@H](Cc1cccc(C(N)=O)c1)[C@@H]2O [Compound 39, 3-{[(16β,17β)-3-(aminomethyl)-17-hydroxyestra-1,3,5(10)-trien-16-yl]methyl}benzamide]
17β-HSD1; read-out: Inhibition (0.1 μM)
  inhibition at 0.1 µM: 35%
17β-HSD1
  inhibition at 1 µM: 73%
MCF-7 cells
  Estrogenicity (0.1 μM): ++
  Estrogenicity (1.0 μM): ++

## CNC(=O)c1ccc2c(c1)CC[C@@H]1[C@@H]2CC[C@]2(C)[C@@H](O)[C@@H](Cc3cccc(C(N)=O)c3)C[C@@H]12 [Compound 41d, (16β,17β)-16-(3-carbamoylbenzyl)-17-hydroxy-N-methylestra-1,3,5(10)-triene-3-carboxamide]
17β-HSD1; read-out: Inhibition (0.1 μM)
  inhibition at 0.1 µM: 3%
17β-HSD1
  inhibition at 1 µM: 5%
MCF-7 cells
  Estrogenicity (1.0 μM): +

## C[C@]12CC[C@@H]3c4ccc(B(O)O)cc4CC[C@H]3[C@@H]1C[C@H](Cc1cccc(C(N)=O)c1)[C@@H]2O [Compound 46, [(16β,17β)-16-(3-carbamoylbenzyl)-17-hydroxyestra-1(10),2,4-trien-3-yl]boronic acid]
17β-HSD1; [5]
  inhibition at 0.1 µM: 39%
MCF-7 cells
  Estrogenicity (0.1 μM): ++
  Estrogenicity (1.0 μM): ++

## C[C@]12CC[C@@H]3c4ccc(N)cc4CC[C@H]3[C@@H]1C[C@H](Cc1cccc(C(N)=O)c1)[C@@H]2O [Compound 50, 3-{[(16β,17β)-3-amino-17-hydroxyestra-1,3,5(10)-trien-16-yl]methyl}benzamide]
17β-HSD1; read-out: Inhibition (0.1 μM)
  inhibition at 0.1 µM: 35%
17β-HSD1
  inhibition at 1 µM: 43%
MCF-7 cells
  Estrogenicity (1.0 μM): +

## C[C@]12CC[C@@H]3c4ccc(F)cc4CC[C@H]3[C@@H]1C[C@H](Cc1cccc(C(N)=O)c1)[C@@H]2O [Compound 57, 3-{[(16β,17β)-3-fluoro-17-hydroxyestra-1(10),2,4-trien-16-yl]methyl}benzamide]
17β-HSD1; read-out: Inhibition (0.1 μM)
  inhibition at 0.1 µM: 48%
17β-HSD1
  inhibition at 1 µM: 50%
MCF-7 cells
  Estrogenicity (1.0 μM): +

## C[C@]12CC[C@@H]3c4ccc(C(N)=O)cc4CC[C@H]3[C@@H]1C[C@H](Cc1cccc(C(N)=O)c1)[C@@H]2O [Compound 61, (16β,17β)-16-(3-carbamoylbenzyl)-17-hydroxyestra-1,3,5(10)-triene-3-carboxamide]
17β-HSD1; [5]
  inhibition at 0.1 µM: 3%
17β-HSD1; [6]
  inhibition at 1 µM: 23%
MCF-7 cells
  Estrogenicity (1.0 μM): ++

## C[C@]12CC[C@@H]3c4ccc(CO)cc4CC[C@H]3[C@@H]1C[C@H](Cc1cccc(C(N)=O)c1)[C@@H]2O [II, 3-{[(16β,17β)-17-hydroxy-3-(hydroxymethyl)estra-1,3,5(10)-trien-16-yl]methyl}benzamide]
17β-HSD1; [5]
  inhibition at 0.1 µM: 56%
17β-HSD1; [6]
  inhibition at 1 µM: 73%
17β-HSD1; [7]
  inhibition at 0.01 µM: 14%
17β-HSD1; [8]
  inhibition at 0.1 µM: 37%
MCF-7 cells
  estrogenic activity on MCF-7 cells (FIG. 1): significant estrogenic activity
  Estrogenicity (1.0 μM): +

## C[C@]12CC[C@@H]3c4ccc(CCO)cc4CC[C@H]3[C@@H]1CC(Cc1cccc(C(N)=O)c1)[C@@H]2O (stereo partly drawn) [IV, 3-{[(17β)-17-hydroxy-3-(2-hydroxyethyl)estra-1(10),2,4-trien-16-yl]methyl}benzamide]
17β-HSD1; [5]
  inhibition at 0.1 µM: 19%
17β-HSD1; [6]
  inhibition at 1 µM: 57%
17β-HSD1; [7]
  inhibition at 0.01 µM: 7%
17β-HSD1; [8]
  inhibition at 0.1 µM: 17%
MCF-7 cells
  estrogenic activity on MCF-7 cells (FIG. 1): completely removed any estrogenic activity
  Estrogenicity (0.1 μM): +
  Estrogenicity (1.0 μM): ++
